Measurements published in patent US20060229224A1, “Bleaching composition” (priority 2003, published 2006).
Several values for one entry are separate records, joined by “and”; a condition that tells them apart may be missing. Identical values can stand only once. Entries after “also recorded” stand apart in the source; their conditions may differ. Like-named read-outs stand apart in the source and are kept apart here.

Key:
[1] = test system: 3T3; assay: In Vitro 3T3 NRU Photo-toxicity Test; details: for Result: photo-toxicity classification
Experimental: (§1) Photo-bleaches were tested for photo-toxicity using the Photo-toxicity-In Vitro 3T3 NRU Photo-toxicity Test” of the Commission Directive 2000/33/EC of 25 Apr.

[2] = Photo-bleaching of palm oil stained cotton cloths in wash followed by weatherometer irradiation; details: staining relative to clean white cloth
Experimental: Palm oil stained cloths (Brazilian) were prepared as follows. Palm oil 0.06 g was added deposited onto individual woven white cotton cloth samples weighing 1.2 g each. The cloth samples were allowed to age for 1 hour before being washed. Each wash consisted of four stained cloths, 200 ml of 40° C. water and 1 g of Persil Colour-washing powder (purchased in UK, zeolite based). The wash liquor was agitated for 20 minutes then the clothes rinsed in cold water, wrung and irradiated in a weatherometer for 18 minutes. The weatherometer is designed to simulate outside line drying and was set to give 42 W/m2 in the UVA&B.
The washes were duplicated but with the addition of 9 ppm of the photo-bleach to the wash solution, corresponding to 0.18% by weight on the powder formulation.
After the wash/irradiation procedure the staining of the clothes relative to clean white cloth was measured on a reflectometer and expressed as the deltaE value.

[3] = test system: 3T3
Experimental: as §1

[4] = Table 3, PIF quoted to 2 significant figures
[5] = Example 2, same procedure as Example 1, 9 ppm photo-bleach
[6] = Example 1, 9 ppm photo-bleach in wash solution, 40° C. wash, irradiated 18 minutes in weatherometer

Molecule	PIF [1, 4]	Result ([1]; Table 3)	also measured
CC(C)(O)C(=O)c1ccc(OCCO)cc1 [2-hydroxy-4′-hydroxyethoxy-2-methylpropiophenone]	>120	Photo-toxic (PIF≧5 or MPE≧0.1)	
CC1=CC(=O)c2ccccc2C1=O [Vitamin K3, 2-methyl-1,4-napthoquinone]	2.3	Non-photo-toxic (PIF<5 or MPE<0.1)	Average deltaE [2, 5]: 2.9; photo-toxicity classification [1]: not photo-toxic; also recorded: non-photo-toxic; PIF ([1]; experiments repeated twice more): 1.9 and 1.6
CCc1ccc2c(c1)C(=O)c1ccccc1C2=O [2-ethylanthraquinone]	>1000	Photo-toxic (PIF≧5 or MPE≧0.1)	Average deltaE [2, 6]: 2.5
2-sulphate anthraquinone			PIF [3]: >170
Cc1cc(C)c(C(=O)P(=O)(C(=O)c2c(C)cc(C)cc2C)c2ccccc2)c(C)c1 [Phenylbis(2,4,6-trimethylbenzoyl)-phosphine oxide]	>12	Photo-toxic (PIF≧5 or MPE≧0.1)	
Cc1cc(C)c(C(=O)c2ccccc2)c(C)c1 [2,4,6-trimethylbenzophenone]	28	Photo-toxic (PIF≧5 or MPE≧0.1)	Average deltaE [2, 6]: 16.2
CN(C)CCCN1c2ccccc2Sc2ccc(Cl)cc21 [Chlorpromazine]	43	Photo-toxic (PIF≧5 or MPE≧0.1)	
O=C(c1ccccc1)C1(O)CCCCC1 [1-hydroxycyclohexylphenyl ketone]			PIF [3]: >7.5
CC1(C)[C@@H]2CC[C@@]1(C)C(=O)C2=O [Camphoroquinone]			Average deltaE [2, 5]: 23.5
